From article PMC12490239, “Combining BET inhibition with SMAC mimetics restricts tumor growth and triggers immune surveillance in preclinical cancer models” (Cell Reports Medicine, 2025)

Tests used:
Test in all cases: cells
Design in all cases: CellTiter-Glo 2.0 luminescence proliferation/viability assay, single agents, human tumour cell line panel
WiDr = settings: Homo sapiens, WiDr, 96 h; single agent; read-out: IC50 SMACm
Method: (§1) The effect of BETi, SMACm alone or in combination cell viability was determined using a 96-h CellTiter-Glo2.0 proliferation assay. Cells were seeded in assay plates and placed at 37°C with 5% CO2 for twenty-four hours before treatment. Compounds were added in triplicate in gradients of increasing concentrations, in case of SMACm ranging between 4.5 nM and 10 μM and in case of BETi between 1.4 nM and 3 μM. DMSO served as control. Cell viability was measured by luminescence analysis using luminescence read on Envision plate readers (PerkinElmer). An additional set of colorectal cancer cell lines was assayed with technical duplicates and experimental triplicates. Cell viability was measured by luminescence analysis using luminescence read on Tecan Plate reader. The effects of drug combinations were analyzed using the Bliss Independence Model.[34] Synergy score was calculated by the average of 3 highest and 3 lowest BLISS Gaps between predicted and measured POC (Percentage of Control) values. To investigate the synergistic interaction between BI 894999 (hereafter, BETi) and BI 891065 (hereafter, SMACm), we evaluated the in vitro anti-tumor effect of the single agents or the combination in a large panel of 151 cancer cell lines of different tissue origin: CRC, gastric cancer, non-small cell lung cancer (NSCLC), and pancreatic carcinoma (Figures 1C–1F). As a mono-agent, SMACm was able to inhibit cell proliferation only in a limited number of tested cell lines (4%, Table S2). Most of the cell lines responded to inhibition by BETi, with sensitivity ranging from 10 to 100 nM (Figure 1C). Bliss Gap analysis, performed to analyze the effect of the BETi+SMACm combination on tumor cell growth (Figures 1D–1F), unveiled potent synergistic activity across the cell models tested (Figure 1E), independent of tumor type (Figure 1F).  Figure 1 The combinatorial effect of BI 894999 and BI 891065 across a panel of human tumor cell lines (A) Selectivity and potency profiles of BI 891065. Top left, structure of BI 891065. Top right, IC50 values for BI 891065 inhibition of cIAP1, cIAP2, and XIAP. Bottom, physicochemical properties of […]. (B) WES (Simple Western System) analysis of cIAP1, cIAP2, and XIAP levels upon treatment of HT-29 cells with indicated concentrations of BI 891065 for 6 h (C) IC50 values determined in cell proliferation assays (n = 151) individually for BETi BI 894999 and SMACm BI 891065. Each point represents a cell line tested. (D) Example of proliferation assay for synergy analysis in LoVo cell line; shown is combination plate map matrix and the cell growth inhibition (CGI) at the indicated concentrations; CGI values < 100%: tumor cell growth, CGI 100%: tumor cell stasis, and CGI > 100%: tumor cell killing. (E) Synergy scores across the tested panel of cell lines obtained using Bliss synergy analysis. (F) Violin plots showing the synergy scores for BETi and SMACm combination across indications. N is the number of cell lines tested in each indication group.

SNU1235 = settings: 96 h; single agent; read-out: IC50 SMACm
Method: as §1

KE-39 = settings: 96 h; single agent; read-out: IC50 SMACm
Method: as §1

HROC374 = settings: 96 h; single agent; read-out: IC50 SMACm
Method: as §1

HCC78 = settings: Homo sapiens, HCC78, 96 h; single agent; read-out: IC50 SMACm
Method: as §1

NCI-H2126 = settings: Homo sapiens, NCI-H2126, 96 h; single agent; read-out: IC50 SMACm
Method: as §1

HGC-27 = settings: Homo sapiens, HGC-27, 96 h; single agent; read-out: IC50 SMACm
Method: as §1

CAPAN-2 = settings: Homo sapiens, Capan-2, 96 h; single agent; read-out: IC50 SMACm
Method: as §1

AsPC-1 = settings: Homo sapiens, ASPC1, 96 h; single agent; read-out: IC50 SMACm
Method: as §1

LK-2 = settings: Homo sapiens, LK-2, 96 h; single agent; read-out: IC50 SMACm
Method: as §1

GCIY = settings: Homo sapiens, GCIY, 96 h; single agent; read-out: IC50 SMACm
Method: as §1

CACO2 = settings: Homo sapiens, Caco-2, 96 h; single agent; read-out: IC50 SMACm
Method: as §1

T84 = settings: Homo sapiens, T84, 96 h; single agent; read-out: IC50 SMACm
Method: as §1

CAR1 = settings: Homo sapiens, CaR-1, 96 h; single agent; read-out: IC50 SMACm
Method: as §1

IC50 (SNU1235): 2.14 µM
IC50 (HCC78): 5.11 µM
IC50 (NCI-H2126): 6.14 µM
IC50 (AsPC-1): > 10 µM
IC50 (CACO2): 2.97 µM
SMILES: CN[C@@H](C)C(=O)Nc1ccc(-c2c(-c3cccnc3OC)nc3cc(C)ccn23)c(C#Cc2ccc3c(C)nccc3c2)n1 [SMACm, BI 891065]
IC50 (WiDr): 4.25 µM
IC50 (KE-39): 3.86 µM
IC50 (HROC374): 3.34 µM
IC50 (HGC-27): 2.89 µM
IC50 (CAPAN-2): 8.59 µM
IC50 (LK-2): 4.15 µM
IC50 (GCIY): 4.01 µM
IC50 (T84): 4.44 µM
IC50 (CAR1): 2.1 µM
